Assay results taken from patent US11963996B2, “Method of treating knee pain” (ORTHOTROPHIX, Inc., priority 2018, dated 2024).
“Also recorded” adds a separate entry of the source.

Tests used:
[1] = tested on: subjects with bilateral patello-femoral knee osteoarthritis; test: Phase 2 randomized double-blind placebo-controlled study of TPX-100: patient-reported outcomes (KOOS, WOMAC); type: in vivo, human; conditions: for KOOS ADL (knee function in activities of daily living) improvement over baseline / WOMAC Function subscale improvement: 200 mg intra-articular x4 once weekly, 6 and 12 months; for KOOS ADL (knee function in activities of daily living) improvement over baseline: Index vs Control (placebo) Knees
Description: A multicenter, randomized double-blind, placebo-controlled study was designed to investigate the safety, tolerability, pharmacokinetics, and efficacy of TPX-100 administered in four weekly doses in subjects with bilateral patello-femoral knee osteoarthritis. The study was conducted under an open IND (investigational new drug application) at CDER (Center for Drug Evaluation and Research) of the U.S. FDA (The United States Food and Drug Administration) in compliance with GCP (Good Clinical Practice) and ICH (International Conference on Harmonization of Technical Requirements for Registration of Pharmaceuticals for Human Use) guidelines. Eighteen (18) orthopedic, rheumatologic and family practice centers in the U.S. participated in the study.
The study was divided into Part A and Part B. The Part A was designed to evaluate safety of intra-articular (I.A.) administration of TPX-100 at different dosing levels (20, 50, 100, or 200 mg per injection in sequential cohorts) in the subjects with osteoarthritis of the knees and to select a dose for Part B. Part B was to evaluate safety and efficacy of the selected dose of TPX-100.
Subjects in Part A were enrolled in sequential cohorts and randomized to receive 20, 50, 100 or 200 mg of TPX-100 in one knee (Index Knee) and identical placebo in the contralateral (Control) knee. Subjects, sites and sponsor and central MRI readers were blinded as to treatment assignment. A Safety Review Committee (SRC) evaluated safety in each dosing cohort. The SRC assessed safety and determined whether the next higher dosing regimen could be enrolled. All dosing cohorts in Part A were completed and analyzed with regard to safety prior to dose selection and initiation of Part B.
Part A included four (4) intra-articular (I.A.) injections, one per week, in sequential dosing cohorts of 20, 50, 100 and 200 mg TPX-100 versus placebo. Six (6) subjects were enrolled in 20, 50, and 100 mg cohorts, respectively, and nine (9) subjects were enrolled in the 200 mg cohort.
The 200 mg dose was selected for Part B based on safety review and the approval of the SRC. […] Per the Statistical Analysis Plan, these subjects were combined with the nine subjects in the 200 mg cohort of Part A for the efficacy analysis. In total, data from 93 subjects was analyzed for drug efficacy, each of whom received 4 once-weekly injections of TPX-100, 200 mg/dose, in the Index knee and identical placebo in the contralateral knee, as randomly assigned.
In both Part A and Part B, subjects received 4, once-weekly doses of active drug in the knee randomized to active drug in the Index knee and placebo in the contralateral (Control) knee, delivered by the intra-articular route. No other doses of drug or placebo were administered. All subjects visited their respective clinical sites at 3, 6, and 12 months after the first dosing for their safety and efficacy assessments.
On the first dosing day, the randomized subjects were assessed by physical examinations and vital signs. Further, they completed the Knee injury and Osteoarthritis Outcome Score (KOOS), which includes the Western Ontario and McMaster Universities Osteoarthritis Index (WOMAC). The KOOS questionnaire assesses knee-specific activities of daily living, sports and recreation, knee-related quality of life, other symptoms such as stiffness, and knee pain. The KOOS has been used extensively in longitudinal studies of knee osteoarthritis. After assessments were completed, subjects received one intra-articular injection in each knee, with each injection prepared from the vial(s) marked for that knee. One knee received TPX-100, and the contralateral knee received placebo with subject, site, and sponsor blinded to treatment assignment. Subjects were monitored for adverse events during the injections and for a few hours after the injections. Vital signs were also monitored after the injections. […]

[2] = tested on: subjects with bilateral patello-femoral knee osteoarthritis; test: Same study: MRI-based patello-femoral and tibiofemoral cartilage thickness; type: in vivo, human
Description: Subjects returned to their respective study sites at 3, 6 and 12 months after the first dosing day for follow-up evaluations. In addition, the study sites monitored the subject's condition through telephone contact 9 months after the first dosing day. During the 3, 6, and 12 months post-treatment, subjects were evaluated on site with physical examinations, vital signs, serum chemistries, as well as completing patient-reported outcomes including the KOOS. Adverse events and concomitant medications were recorded. MRIs of both knees were obtained during the 6 and 12-month visits.
All KOOS subscale scores, WOMAC Total score and subscale scores, MRI-based patello-femoral and tibiofemoral cartilage thickness, and MRI-based periarticular bone area and 3D bone shape were analyzed.
MRI images were provided to central readers cartilage and periarticular bone measures. Central readers were blind as to treatment assignment.
Statistical analyses were carried out using a two-sided paired t-test at the 5% level of significance. The outcome variables were the differences of the change of the score of each subscale of KOOS, change of cartilage thickness, periarticular bone area, and 3D bone shape score (“B Score”) change from baseline to 6 and 12 months in the treated knee (“Index Knee”) compared with the placebo-exposed knee (“Control Knee”).

[3] = 200 mg IA x4, Index vs Control Knees, 12 months
[4] = Index vs Control Knees, 6 or 12 months

TPX-100: synthetic peptide consisting of 23 amino acids, TDLQERGDNDISPFSGDGQPFKD, derived from human Matrix Extracellular Phosphoglycoprotein (MEPE)
KOOS Sports and Recreation subscale improvement ([1]; 200 mg IA x4, Index vs Control Knees, 6 months): clinically meaningful and statistically significant improvement
KOOS Knee-related QOL subscale improvement [1, 3]: clinically meaningful and statistically significant improvement
KOOS Pain subscale improvement [1, 3]: only a statistical trend (p<0.09) of improvement; also recorded: clinically meaningful improvement in Index Knees as compared to Control Knees at 12 months, with a trend towards statistical significance (p<0.09)
Pain Frequency (KOOS Pain question 1) [1, 3]: statistically significant improvement in Index Knees as compared to Control Knees (p<0.05); also recorded: significantly reduced (p<0.05)
Pain going up or down stairs (KOOS Pain question) [1, 3]: statistically significant improvement in Index Knees as compared to Control Knees (p<0.05); also recorded: significantly improved (p<0.05)
WOMAC Pain domain improvement [1, 3]: clinically meaningful improvement in Index Knees at 12 months compared with Control knees, although the difference did not reach statistical significance
KOOS ADL (knee function in activities of daily living) improvement over baseline [1]: clinically meaningful and statistically significant (p<0.05) improvements
KOOS ADL (knee function in activities of daily living) improvement over baseline ([1]; listed as peptide of SEQ ID No. 1): clinically meaningful and statistically significant (p=0.008) improvement
WOMAC Function subscale improvement ([1]; Index vs Control Knees): same robust improvement in Index Knees as compared to Control Knees
WOMAC Function subscale improvement ([1]; Index vs Control Knees, listed as peptide of SEQ ID No. 1): clinically meaningful and statistically significant (p=0.008) improvement
WOMAC Total score improvement ([1]; Index vs Control Knees, 6 or 12 months, or both): significant improvements in favor of Index knees
Decrease in use of analgesics by participants ([1]; overall, over the 12-month study period): 62.5%
Pain frequency in responders, baseline to 12 months ([1]; responders to treatment, 12 months): decreased from daily pain at baseline to semi-monthly pain at 12 months
Pain frequency in responders, baseline to 12 months ([1]; responders to treatment, 12 months, listed as peptide of SEQ ID No. 1): semi-weekly
Improvement of pain frequency score in responder group ([1]; responders to treatment, baseline score 3 (daily), at 12 months): approximately 1.5 points
Overall tibiofemoral cartilage thickness change from baseline [2, 4]: not measurably different between Index and Control Knees
Patello-femoral (patella) cartilage thickness change from baseline by MRI (primary endpoint) [2, 4]: no statistically significant difference between Index vs. Control Knees; also recorded: no measurable difference between Index and Control Knees
Tibiofemoral cartilage thickness change in TPX-100-treated responder knees ([2]; knees with clinically meaningful functional improvements, baseline to 12 months): significantly increased
